Experimental data reported in patent US20080076824A1, “Compounds That Inhibit Replication Of Human Immunodeficiency Virus” (priority 2004, published 2008).
Several values for one entry are separate records, joined by “and”; a condition that tells them apart may be missing. Identical values can stand only once. Counter-ions that a name gives are not always drawn.

Test: Microdose study of 14C-AlphaHGA in healthy volunteers, plasma pharmacokinetics (AMS)
Assay type: in vivo, human
Conditions: plasma
Procedure: In this example, the pharmacokinetics (PK) and oral bioavailability of AlphaHGA in adult healthy volunteers following a single ‘microdose’ in a sequence-randomized, cross-over study design (two periods 7 days apart) was determined. Clinical experiments were conducted with low-level radiolabelled (^14C) AlphaHGA administered intravenously (IV) orally (PO) with serial blood and urine samples were collected for concentration analysis utilizing accelerator mass spectrometry (AMS).
Accordingly, eight subjects were enrolled into a single dose cross-over study. The subjects were randomly assigned to one of two administration sequences. Subjects that were assigned to sequence 1 received AlphaHGA as an oral preparation first (Period 1) followed by the intravenous (IV) preparation 1 week later (Period 2). Subjects assigned to sequence 2 received AlphaHGA as an intravenous preparation first followed by the oral preparation 1 week later. Four subjects were assigned to sequence 1 and four subjects were assigned to sequence 2.
For both oral and IV doses subjects were administered 100 nCi (3.7 Kbq) of alphaHGA, which was determined to contain 1.602888×10ˆ6 fmol of ^14C. The specific activity of each dose was 46.619 MBq/mol (or 1.260 mCi/mol). A stock blend of ^14C-labelled alphaHGA was produced prior to the first study period. The actual formulations used for dosing were prepared on the morning prior to each study period. The infusion was a single bolus injection with both the infusion and flush were completed in less than 30 seconds.
Blood (5 ml) was collected following the administration of AlphaHGA orally or as an IV bolus at the following times: pre-dose (T=0) and 15, 30, 45, 60 minutes, and at 2, 3, 4, 6, 8, 10, 12, 16, 24 hours post-dose. All of the 224 scheduled blood samples were obtained. Blood specimens were drawn by intravenous in-dwelling catheter into 2×10 mL EDTA containing Vacutainer tubes and RBC's separated by centrifugation.
Plasma specimens (30 μL) were analyzed directly via the combustive procedure without further chemical manipulation. For the purposes of calculating ^14C concentration per volume of plasma, a general carbon content of 45% (dry mass) was applied. The urine was mixed with equal volumes (0.5 mL) of a sucrose carbon diluent solution (200 g/L) and mixed by inversion in a disposable polypropylene centrifuge tube. A 20-μL sample was graphitized for AMS analysis according to standard procedures. The mass fraction of the urine represented in the measured sample was inverted and multipled by the ^14C contents above background derived from the AMS measurement to calculate the ^14C content in the total urine void. A density value of 1 g/mL for urine was assumed to calculate its volume from the recorded masses.
Pharmacokinetic parameters were estimated by noncompartmental analysis employing the PK software WinNonlin version 4.1 (Pharsight Corporation, Palo Alto, Calif.). Statistical analyses were performed using either WinNonlin 4.1 or SPlus 2000 (Insightful Inc, Seattle, Wash.). All parameter calculations are reported from observed values and not from predicted values. However, observed and predicted values were very close and parameter estimates from both approaches were nearly equal.
. Values for the following PK parameters were estimated from plasma alphaHGA concentrations:
Maximum observed concentration (Cmax) and the time to reach Cmax (Tmax), the last quantified concentration (Clast), the time to Clast (Tlast), and time to the first quantified concentration (Tfirst) came from the experimentally observed values.
Terminal elimination rate constant (λz), was estimated from log-linear regression analysis of the apparent terminal phase of the plasma concentration-time profile. Weighting for the regression was 1/Y^2. The associated plasma half-life (T½) was calculated as T½=ln 2/λz. The point employed for estimating λz, were selected by the WinNonlin default curve stripping algorithm. […]

[1] = route iv, individual subjects 1-8, period 1 or 2
[2] = route iv, individual subjects 1-8, period 1 or 2, hydrochloride
[3] = route po, individual subjects 1-8, period 1 or 2, hydrochloride

With `NC(=O)C(N)O` (stereo not drawn) [AlphaHGA, α-Hydroxy-glycinamide hydrochloride] the Tmax (Route iv, Max) was 0.50 h, the “AUC % Extrap” value (Route iv, Mean) was 14.04% and the AUCTmax (Route iv, Mean) was 0.00876 nM·h. For the same compound, the AUCinf (Route iv, Mean) was 0.36141 nM·h, the AUClast (Route iv, Mean) was 0.31056 nM·h and the Az (Route iv, Mean) was 0.070 h⁻¹. For the same compound, the Clast (Route iv, Mean) was 0.00343 nM, the Cmax (Route iv, Mean) was 0.0544 nM and the “T ½” value (Route iv, Mean) was 10.11 h. The Tmax (Route iv, Mean) was 0.28 h, the “AUC % Extrap” value (Route iv, Min) was 9.23% and the AUCTmax (Route iv, Min) was 0.00422 nM·h. It also gave an AUCinf (Route iv, Min) of 0.27962 nM·h, an AUClast (Route iv, Min) of 0.24083 nM·h and an Az (Route iv, Min) of 0.054 h⁻¹. For the same compound, the Clast (Route iv, Min) was 0.00267 nM, the Cmax (Route iv, Min) was 0.0337 nM and the “T ½” value (Route iv, Min) was 8.26 h. For the same compound, the Tmax (Route iv, Min) was 0.25 h, the “AUC % Extrap” value (Route po, Max) was 16.54% and the AUCTmax (Route po, Max) was 0.04903 nM·h. For the same compound, the AUCinf (Route po, Max) was 0.4907 nM·h, the AUClast (Route po, Max) was 0.46442 nM·h and the Az (Route po, Max) was 0.118 h⁻¹. The Clast (Route po, Max) was 0.00459 nM, the Cmax (Route po, Max) was 0.076 nM and the “T ½” value (Route po, Max) was 11.29 h. For the same compound, the Tmax (Route po, Max) was 2.00 h, the “AUC % Extrap” value (Route po, Mean) was 13.07% and the AUCTmax (Route po, Mean) was 0.02176 nM·h. The AUCinf (Route po, Mean) was 0.37884 nM·h, the AUClast (Route po, Mean) was 0.33063 nM·h and the Az (Route po, Mean) was 0.076 h⁻¹. The Clast (Route po, Mean) was 0.00353 nM, the Cmax (Route po, Mean) was 0.0507 nM and the “T ½” value (Route po, Mean) was 9.40 h. The Tmax (Route po, Mean) was 0.81 h, the “AUC % Extrap” value (Route po, Min) was 5.36% and the AUCTmax (Route po, Min) was 0.01199 nM·h. It also gave an AUCinf (Route po, Min) of 0.31704 nM·h, an AUClast (Route po, Min) of 0.26699 nM·h and an Az (Route po, Min) of 0.061 h⁻¹. For the same compound, the Clast (Route po, Min) was 0.00286 nM, the Cmax (Route po, Min) was 0.0357 nM and the “T ½” value (Route po, Min) was 5.88 h. The Tmax (Route po, Min) was 0.50 h, the Tfirst [1] was 0.25 h and the Tlast [1] was 24 h. The AUCTmax [2] was 0.00422 nM·h and 0.00683 nM·h and 0.00902 nM·h and 0.00647 nM·h and 0.02396 nM·h and 0.00615 nM·h and 0.00528 nM·h and 0.00813 nM·h, the AUCinf [2] was 0.27962 nM·h and 0.32862 nM·h and 0.36703 nM·h and 0.32974 nM·h and 0.43166 nM·h and 0.35514 nM·h and 0.39463 nM·h and 0.40482 nM·h and the AUClast [2] was 0.24083 nM·h and 0.29153 nM·h and 0.32782 nM·h and 0.29111 nM·h and 0.39184 nM·h and 0.28587 nM·h and 0.32585 nM·h and 0.32966 nM·h. The Clast [2] was 0.00267 nM and 0.00304 nM and 0.00292 nM and 0.00299 nM and 0.00334 nM and 0.00375 nM and 0.00462 nM and 0.0041 nM, the Cmax [2] was 0.0337 nM and 0.0546 nM and 0.0722 nM and 0.0517 nM and 0.0668 nM and 0.0492 nM and 0.0422 nM and 0.065 nM and the T1/2 [2] was 10.07 h and 8.46 h and 9.31 h and 8.96 h and 8.26 h and 12.80 h and 10.32 h and 12.71 h. For the same compound, the Tmax [2] was 0.25 h and 0.5 h, the λz [2] was 0.069 h⁻¹ and 0.082 h⁻¹ and 0.075 h⁻¹ and 0.077 h⁻¹ and 0.084 h⁻¹ and 0.054 h⁻¹ and 0.067 h⁻¹ and 0.055 h⁻¹ and the Tlast (route po, individual subjects 1-8, period 1 or 2) was 24 h. The AUCTmax [3] was 0.0122 nM·h and 0.03149 nM·h and 0.01712 nM·h and 0.04903 nM·h and 0.02379 nM·h and 0.01199 nM·h and 0.01353 nM·h and 0.01489 nM·h, the AUCinf [3] was 0.32094 nM·h and 0.4907 nM·h and 0.31704 nM·h and 0.41499 nM·h and 0.40394 nM·h and 0.32388 nM·h and 0.3913 nM·h and 0.36795 nM·h and the AUClast [3] was 0.28221 nM·h and 0.46442 nM·h and 0.26699 nM·h and 0.34636 nM·h and 0.34963 nM·h and 0.27076 nM·h and 0.34145 nM·h and 0.32318 nM·h. The Clast [3] was 0.00286 nM and 0.0031 nM and 0.00341 nM and 0.00459 nM and 0.00395 nM and 0.00326 nM and 0.00376 nM and 0.0033 nM, the Cmax [3] was 0.0406 nM and 0.076 nM and 0.0357 nM and 0.0392 nM and 0.0494 nM and 0.0479 nM and 0.0581 nM and 0.0584 nM and the T1/2 [3] was 9.39 h and 5.88 h and 10.18 h and 10.36 h and 9.53 h and 11.29 h and 9.19 h and 9.40 h. The Tfirst [3] was 0.25 hr (7×) and 0.5 hr, the Tmax [3] was 0.5 h and 0.75 h and 1 h and 2 h and the λz [3] was 0.074 hr^−1 (2×) and 0.118 hr^−1 and 0.068 hr^−1 and 0.067 hr^−1 and 0.073 hr^−1 and 0.061 hr^−1 and 0.075 hr^−1.
